Results from ChEMBL document CHEMBL1123313, “Folate analogues. 25. Synthesis and biological evaluation of N10-propargylfolic acid and its reduced derivatives” (J Med Chem, 1986).
Converted amounts (≈) assume the structure as drawn.

Legend:
Lacticaseibacillus casei [1] = assay: Inhibitory activity against Lactobacillus casei ATCC 7469; assay type: functional, organism-based
Lacticaseibacillus casei [2] = assay: Inhibitory activity against Lactobacillus casei MTX-resistant; assay type: functional, organism-based
Thymidylate synthase [3] = molecular target: T1, Thymidylate synthase (Lactobacillus casei, UniProt P00469); assay: Inhibitory activity against thymidylate synthase derived from Lactobacillus casei; set-up: species or system Lacticaseibacillus casei
T1 sequence (P00469 whole entry): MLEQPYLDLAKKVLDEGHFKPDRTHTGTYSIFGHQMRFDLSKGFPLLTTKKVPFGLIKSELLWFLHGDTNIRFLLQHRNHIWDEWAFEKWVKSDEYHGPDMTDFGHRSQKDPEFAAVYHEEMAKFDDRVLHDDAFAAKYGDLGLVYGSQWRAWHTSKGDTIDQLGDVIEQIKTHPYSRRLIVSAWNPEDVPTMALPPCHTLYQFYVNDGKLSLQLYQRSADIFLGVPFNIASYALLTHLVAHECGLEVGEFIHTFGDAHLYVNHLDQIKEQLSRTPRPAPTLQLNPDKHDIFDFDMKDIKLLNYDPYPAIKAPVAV

Enterococcus faecium [4] = assay: Inhibitory activity against Streptococcus faecium ATCC 8043; assay type: functional, organism-based
Enterococcus faecium [5] = assay: Inhibitory activity against Streptococcus faecium MTX-resistant; assay type: functional, organism-based
Dihydrofolate reductase = Dihydrofolate reductase (Lactobacillus casei, UniProt P00381)
Chain of Dihydrofolate reductase (P00381 whole entry): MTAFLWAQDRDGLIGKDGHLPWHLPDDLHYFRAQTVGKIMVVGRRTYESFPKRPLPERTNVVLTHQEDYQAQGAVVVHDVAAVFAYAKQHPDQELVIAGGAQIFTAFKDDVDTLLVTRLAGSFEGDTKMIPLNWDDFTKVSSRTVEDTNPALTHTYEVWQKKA
Description: Inhibitory activity against dihydrofolate reductase derived from Lactobacillus casei

Thymidylate synthase [6] = molecular target: T2, Thymidylate synthase (Mus musculus, UniProt P07607); assay: Inhibitory activity against thymidylate synthase in the intact L1210 cells; assay type: cell-based
T2 sequence (P07607 whole entry): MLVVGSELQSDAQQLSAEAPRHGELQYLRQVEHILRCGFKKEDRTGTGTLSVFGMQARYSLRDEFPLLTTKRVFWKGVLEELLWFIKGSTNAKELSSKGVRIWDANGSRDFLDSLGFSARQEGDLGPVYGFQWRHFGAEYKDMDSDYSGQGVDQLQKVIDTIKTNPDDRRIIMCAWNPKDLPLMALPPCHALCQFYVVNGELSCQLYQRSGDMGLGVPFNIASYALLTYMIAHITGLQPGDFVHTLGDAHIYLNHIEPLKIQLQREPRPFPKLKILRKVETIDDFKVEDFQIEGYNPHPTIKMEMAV

Thymidylate synthase [7] = molecular target: T2, Thymidylate synthase; assay: Inhibitory activity against the thymidylate synthase in the Permeabilized L1210 cells; assay type: cell-based
[8] = Lacticaseibacillus casei, read-out: IC50

SMILES	IC50 (Lacticaseibacillus casei [1]) [ng/mL]	IC50 (Lacticaseibacillus casei [2]; [8]) [ng/mL]	IC50 (Thymidylate synthase [3]) [µM]	IC50 (Enterococcus faecium [4]) [ng/mL]	IC50 (Enterococcus faecium [5]) [ng/mL]	IC50 (Dihydrofolate reductase) [µM]	IC50 (Thymidylate synthase [6]) [µM]	IC50 (Thymidylate synthase [7]) [µM]	IC50 (Lacticaseibacillus casei [2]) [ng/mL]
C#CCN(CC1=Nc2c(O)nc(N)nc2NC1)c1ccc(C(=O)NC(CCC(=O)O)C(=O)O)cc1 (stereo not drawn)	36 (≈ 0.0748 µM)	> 2000	50	0.13 (≈ 0.00027 µM)	24 (≈ 0.0498 µM)	> 50	–	–	–
C#CCN(CC1CNc2nc(N)nc(O)c2N1)c1ccc(C(=O)NC(CCC(=O)O)C(=O)O)cc1 (stereo not drawn)	> 2000	> 2000	32	0.08 (≈ 0.000165 µM)	> 2000	> 140	–	–	–
CN(Cc1cnc2nc(N)nc(O)c2n1)c1ccc(C(=O)NC(CCC(=O)O)C(=O)O)cc1 (stereo not drawn)	–	–	–	–	–	–	> 1000	660	–
C#CCN(Cc1cnc2nc(N)nc(O)c2n1)c1ccc(C(=O)O)cc1	> 2000	> 2000	> 290	0.76 (≈ 0.00217 µM)	> 2000	> 100	–	–	–
C#CCN(Cc1cnc2nc(N)nc(O)c2n1)c1ccc(C(=O)NC(CCC(=O)O)C(=O)O)cc1 (stereo not drawn)	> 2000	> 2000	3.9	0.56 (≈ 0.00117 µM)	> 2000	> 100	> 3000	7.5	–
C#CCN(Cc1ccc2[nH]c(N)nc(=O)c2c1)c1ccc(C(=O)NC(CCC(=O)O)C(=O)O)cc1 (stereo not drawn)	–	2000 (≈ 4.19 µM)	–	–	–	–	–	–	–
Nc1nc2ncc(CNc3ccc(C(=O)N[C@@H](CCC(=O)O)C(=O)O)cc3)nc2c(=O)[nH]1 [FOLIC ACID]	–	–	–	–	–	–	> 1000	1800	–
CN(Cc1cnc2nc(N)nc(N)c2n1)c1ccc(C(=O)N[C@@H](CCC(=O)O)C(=O)O)cc1 [METHOTREXATE]	0.02 (≈ 4.4e-05 µM)	–	–	–	–	–	–	–	> 500000
